Experimental data reported in patent publication EP4541363A1, “USE OF THE (+)-ELATOL COMPOUND FOR TREATING OR PREVENTING A NAEGLERIA FOWLERI INFECTION” (Universidad de la Laguna, priority 2022, dated 2023).
Converted amounts (≈) assume the structure as drawn. Read-outs that look alike come from different tables or passages of the source.

Experiments:
[1] = system: Naegleria fowleri ATCC® 30215™; assay: In vitro activity against Naegleria fowleri, alamarBlue colorimetric assay, strain ATCC 30215; assay type: cell-based; settings: for IC50: Naegleria fowleri, ATCC30215; for IC50 / ATCC® 30215™ IC50: Table 2, strain ATCC® 30215™, 48 hours at 37°C, mean ± standard deviation; for ATCC® 30215™ SI: selectivity index, CC50 in J774A.1 versus IC50 in strain ATCC® 30215™
Protocol: (§1) Two strains of Naegleria fowleri obtained from the American Type Culture Collection (ATCC® 30808™ and ATCC® 30215™) were used (LG Promochem, Barcelona, Spain). Both strains were grown in 2% (w/v) Bacto Casitone (Thermo Fisher Scientific, Madrid, Spain) supplemented with 10% (v/v) fetal bovine serum, 0.3 µg/ml penicillin G sodium salt and 0.5 mg/ml streptomycin sulphate (Sigma-Aldrich, Madrid, Spain) at 37°C.
(§2) All tested compounds were dissolved in dimethyl sulfoxide (DMSO). The in vitro activity of the selected compounds was assessed by a colorimetric assay based on the alamarBlue® reagent. Amoebas were seeded in 96-well plates at a concentration of 2 × 10^5 cells/ml ([…]). Next, serial dilutions (in the same medium as the amoebas) of the compound were prepared and added ([…]) to the wells containing the Naegleria fowleri cells. Lastly, 10% of the total volume of alamarBlue® was added to the wells and incubated under gentle stirring at 37°C for 48 hours. After that time, the emitted fluorescence was read on an EnSpire® Multimode Plate Reader (PerkinElmer, Spain) using a […] (Rizo-Liendo A. et al. "In Vitro Activity of Statins against Naegleria fowleri."; Pathog, vol. 8, no. 3, p. 122 - 2019; doi: 10.3390/ pathogens8030122).

[2] = system: Naegleria fowleri ATCC® 30808™; assay: In vitro activity against Naegleria fowleri, alamarBlue colorimetric assay, strain ATCC 30808; assay type: cell-based; settings: for IC50 / ATCC® 30808™ IC50: strain ATCC® 30808™, 48 hours at 37°C, mean ± standard deviation; for ATCC® 30808™ SI: selectivity index, CC50 in J774A.1 versus IC50 in strain ATCC® 30808™
Protocol: as §1, §2

[3] = Cytotoxicity assay based on alamarBlue reagent; assay type: cell-based; settings: mouse, cytotoxic concentration 50 against murine macrophages J774A.1, 24 hours at 37°C, 5% CO2, mean ± standard deviation
Protocol: (§3) The cells were cultured in DMEM (Dulbecco's Modified Eagle's Medium) supplemented with 10% fetal bovine serum and 10 µg/ml gentamicin (Sigma-Aldrich, Madrid, Spain). The culture was maintained at 37°C in a 5% CO2 atmosphere. To assess cytotoxicity, an assay based on the alamarBlue® reagent was carried out. Briefly, the murine macrophages (2 × 10^5 cells/ml) were incubated with serial dilutions of the test compound that were performed in the same culture medium. Lastly, alamarBlue® was added to each well and kept at 37°C and 5% CO2 for 24 hours.

[4] = system: murine macrophages J774A.1; assay: Cytotoxicity assay based on alamarBlue reagent; assay type: cell-based; settings: cytotoxic concentration 50 against murine macrophages J774A.1; 24 hours at 37°C, 5% CO2; mean ± standard deviation
Protocol: as §3

Naegleria fowleri = settings: infected PAM patients; alone or in combination with other medicines; cited from earlier work
[5] = Naegleria fowleri, ATCC30808, Table 2, read-out: ATCC® 30808™ IC50

| Compound | ATCC® 30215™ SI [1] | ATCC® 30808™ SI [2] | IC50 ([2]; Table 1) [µg/mL] | other results |
| --- | --- | --- | --- | --- |
| C=C1CC(O)C(Br)C(C)(C)C12CCC(C)=C(Cl)C2 (single isomer, unassigned; (+)) [(+)-elatol] | 54.03 | 57.02 |  | IC50 [1]: 0.38 ± 0.06 µg/mL (≈ 1.14 µM); IC50 ([2]; Naegleria fowleri, ATCC30808, Table 1, read-out: IC50): 0.36 ± 0.03 µg/mL (≈ 1.08 µM); IC50 [2, 5]: 0.36 ± 0.03 µg/mL (≈ 1.08 µM); CC50 at 24 h ([3]; j774a.1 macrophages): 20.5 ± 4.33 µg/mL (≈ 61.5 µM) |
| C=C1CC(O)C(Br)C(C)(C)C12CC=C(C)CC2 (single isomer, unassigned; (-)) [(-)-10-bromochamigra-3,7(14)-dien-9-ol] |  |  | > 25 |  |
| C=C1C[C@H](O)[C@H](Br)C(C)(C)C12CCC(C)(Cl)C(Br)C2 (single isomer, unassigned; (-)) [(-)-rogiolol] |  | 5.57 | 8.18 ± 0.92 (≈ 19.7 µM) | ATCC® 30808™ IC50 ([2]; Table 2): 8.18 ± 0.92 µg/mL; CC50 [4]: 45.56 ± 7.80 µg/mL (≈ 110 µM) |
| C=C1C[C@H](O)CC(C)(C)[C@@]12CCC(C)=C(Cl)C2 [(+)-debromoelatol] |  |  | > 25 |  |
| C=C1CC[C@@H](Br)C(C)(C)[C@@]12CC[C@@](C)(Br)[C@H](Cl)C2 [(+)-obtusane] |  |  | > 25 |  |
| C=C1C[C@@H](O)[C@@H](Br)C(C)(C)[C@]12CC[C@](C)(Br)[C@@H](Cl)C2 [(+)-obtusol] |  |  | > 25 |  |
| C=C1C[C@@H](O)[C@@H](Br)C(C)(C)[C@]12CC[C@](C)(Cl)[C@@H](Br)C2 [(-)-cartilagineol] |  |  | > 25 |  |
| C=C1C[C@@H](O)[C@@H](Br)C(C)(C)[C@]12CC[C@@](C)(O)[C@@H](Cl)C2 [(-)-dendroidiol] |  |  | > 25 |  |
| C=C1C[C@H](O)[C@H](Br)C(C)(C)[C@@]12CCC(C)=C(Cl)C2 [(-)-elatol] |  | 4.39 | 12.27 ± 2.68 (≈ 36.8 µM) | ATCC® 30808™ IC50 ([2]; Table 2): 12.27 ± 2.68 µg/mL; CC50 [4]: 53.91 ± 4.28 µg/mL (≈ 162 µM) |
| C[C@@H]1[C@H](O)[C@@H](C)/C=C/C=C/C=C/C=C/C=C/C=C/C=C/[C@H](O[C@@H]2O[C@H](C)[C@@H](O)[C@H](N)[C@@H]2O)C[C@@H]2O[C@](O)(C[C@@H](O)C[C@@H](O)[C@H](O)CC[C@@H](O)C[C@@H](O)CC(=O)O[C@H]1C)C[C@H](O)[C@H]2C(=O)O [Amphotericin B] | > 1333.33 | > 1818.18 |  | IC50 [1]: 0.15 ± 0.02 µg/mL (≈ 0.162 µM); IC50 [2, 5]: 0.11 ± 0.03 µg/mL (≈ 0.119 µM); patients recover at least partially after its administration (Naegleria fowleri): 8%; CC50 at 24 h ([3]; j774a.1 macrophages): > 200 µg/mL |
| CCCCCCCCCCCCCCCCOP(=O)([O-])OCC[N+](C)(C)C [Miltefosine] | 1.56 | 3.30 |  | IC50 [1]: 33.2 ± 2.95 µg/mL (≈ 81.6 µM); IC50 [2, 5]: 15.8 ± 1.72 µg/mL (≈ 38.7 µM); CC50 at 24 h [3]: 52.1 ± 3.61 µg/mL (≈ 128 µM) |
| (-)-3,10-dibromo-4-chloro-alpha-chamigrene |  |  | > 25 |  |
| debromolauriterol | 1.07 | 2.74 |  | ATCC® 30215™ IC50 [1]: 14.13 ± 2.37 µg/mL; ATCC® 30808™ IC50 ([2]; Table 2): 5.54 ± 1.19 µg/mL; CC50 [4]: 15.17 ± 2.80 µg/mL |
| lauriterol | 6.85 | 5.97 |  | ATCC® 30215™ IC50 [1]: 3.45 ± 0.63 µg/mL; ATCC® 30808™ IC50 ([2]; Table 2): 3.96 ± 0.76 µg/mL; CC50 [4]: 23.65 ± 2.30 µg/mL |
